One data set deals with NOS. The data set is described as follows: Colonic mucosal NOS activity after dietary treatment. Particulars: 100 ppm in diet; AOM-treated rats, colonic mucosa; Mean ± SEM. The format is in vivo, male F344 rats. The method, then: (§1) In Vivo Assay of Modulation of Colonic Mucosal Activities of NOS and COX isoforms by iNOS and COX-2 Inhibitors
(§2) NOS and iNOS activities were determined in colonic samples as prepared and described above. Conversion of L-arginine to L-citrulline was measured by a modification of an earlier described method (Rao et al, Carcinogenesis 21, supra; Ambs et al., Cancer Res. 58:334-41, 1998, which is herein incorporated by reference). The assay was carried out by adding 100 μg sample protein to 150 μl of assay buffer [50 mM HEPES, 1 mM DTT, 1 mM MgCl2, 5 mg/L pepstatin A, 0.1 mM PMSF, and 3 mg/L aprotinin, pH 7.4] containing 70 μM arginine, 250,000 dpm L-[^3H]-arginine, 2 mM NADPH, 5μM tetrahydro biopterin, 5 μM flavin adenine dinucleotide, and 0.5 mM CaCi2 to measure total NOS activity, or 1 mM EGTA (without calcium) to determine Ca+^2-independent iNOS activity. After 30 min at 37° C., the reaction was stopped with 100 μl of 1M trichloroacetic acid. Then the samples were adjusted to pH 4.6 by adding 500 μl of 20 mM HEPES and loaded on to Dowex AG 50W-X8 resin columns. L-[^3H]-citrulline was eluted and separated on TLC. Radioactivity was counted by a BioScan Radiomatic detector. Results are expressed as pmol L-[^3H]-citrulline released/mg protein/min.

Another data set addresses T1, COX-1 (Rattus norvegicus, UniProt Q63921).
T1 sequence (Q63921 27-602): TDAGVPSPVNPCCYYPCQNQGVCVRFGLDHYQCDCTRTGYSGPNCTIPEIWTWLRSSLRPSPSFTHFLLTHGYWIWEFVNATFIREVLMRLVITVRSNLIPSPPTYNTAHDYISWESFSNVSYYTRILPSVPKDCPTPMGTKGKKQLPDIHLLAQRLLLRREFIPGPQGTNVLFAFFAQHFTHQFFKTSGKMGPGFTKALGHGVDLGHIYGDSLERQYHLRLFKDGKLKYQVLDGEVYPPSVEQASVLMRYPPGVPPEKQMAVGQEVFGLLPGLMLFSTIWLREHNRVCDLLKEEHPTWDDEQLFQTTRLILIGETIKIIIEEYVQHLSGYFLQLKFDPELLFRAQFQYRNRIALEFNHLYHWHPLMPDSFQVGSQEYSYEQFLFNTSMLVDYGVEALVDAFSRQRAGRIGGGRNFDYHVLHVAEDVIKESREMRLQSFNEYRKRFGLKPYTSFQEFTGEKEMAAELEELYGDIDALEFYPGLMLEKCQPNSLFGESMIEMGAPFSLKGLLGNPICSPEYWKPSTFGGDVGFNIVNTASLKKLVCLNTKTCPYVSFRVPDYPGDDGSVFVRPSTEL
Nature of the data set: Colonic mucosal COX-1 activity after dietary treatment. As to conditions: 100 ppm in diet; AOM-treated rats, colonic mucosa; Mean ± SEM. In kind it is in vivo, male F344 rats. The protocol: For determining COX-2 activity, proteins were preincubated with 50 μM of aspirin to block the activity of COX-1. After incubation at 37° C. for 15 min, the reaction was terminated by adding 40 μl of 0.2 M HCl. The COX-mediated metabolites of arachidonic acid were extracted with ethyl acetate (3×0.5 ml). The combined extracts were evaporated to dryness under N2, redissolved in chloroform, and subjected to thin layer chromatography on precoated TLC plastic plates (silica G 60, 20×20 cm, layer thickness 150 μm). […] The metabolites of ^14C-AA corresponding to PGE2, PGF2α, PGD2, 6-Keto PGF1α, and TXB2 were detected by their comigration (Rf-values) with authentic standards. The area of each metabolite was determined in a Bioscan System 200 image scanning counter (Bioscan Inc., Washington, D.C.) equipped with β-detector.

The target in the next data set is iNOS (Rattus norvegicus, UniProt Q06518). The data set is described as follows: Colonic mucosal iNOS activity after dietary treatment. In kind it is in vivo, male F344 rats. The method, then: as §1, §2
The next data set is described as follows: in vivo. As to conditions: male, F344, rat, plasma, oral.

Where a name gives a salt, the structure may show the parent alone.

Take `CC(=N)NCCCC[C@H](N)C(=O)Nc1nnn[nH]1` [compound XI, 2S-amino-6-[(1-iminoethyl)amino]-N-(1H-tetrazol-5-yl)hexanamide, hydrate, dihydrochloride]: the “NOS Activity, NOS” value in the data set with NOS was 9.8 ± 1.5 pmoles [^3H]-citrulline/mg pro. In addition, the “COX-Activity, COX-1” value on COX-1 was 11.3 ± 1.4 pmoles [^14C]-AA metabolized/m. In addition, the “suppression of AOM-induced colonic mucosal iNOS activity” value at iNOS (100 ppm) was around 37%. In addition, the “NOS Activity, iNOS” value on iNOS (100 ppm in diet, AOM-treated rats, colonic mucosa, Mean ± SEM) was 1.6 ± 0.2 pmoles [^3H]-citrulline/mg pro. For the same compound, in the data set “in vivo” (10 ppm in diet), the concentration at 1 week on diet came to 461 ng/mL, the concentration at 5 weeks on diet is 341 ng/mL and the concentration at 9 weeks on diet turned out to be 254 ng/mL. Moreover, in the data set “in vivo” (20 ppm in diet), the concentration at 1 week on diet is 1320 ± 71 ng/mL, the concentration at 5 weeks on diet was found to be 821 ± 32 ng/mL and the concentration at 9 weeks on diet stood at 742 ± 7 ng/mL. Further, in “in vivo” (100 ppm in diet), the concentration at 1 week on diet is 4310 ng/mL, the concentration at 5 weeks on diet was found to be 2810 ng/mL and the concentration at 9 weeks on diet came to 2640 ng/mL.

For the origin of these results see US7012098B2, “Inhibitors of inducible nitric oxide synthase for chemoprevention and treatment of cancers” (Pharmacia Corporation, priority 2001, dated 2006).
